In PubChem BioAssay AID1963848 (Molecular Pharmacology Branch, DTP, NCI, 2024):

Tested on: 379773-124-R-J2-PDC spheroid viability
Assay: Anticancer human tumor 379773-124-R-J2-PDC patient-derived endometrial carcinoma cell line growth inhibition [POLQ]
Conditions: spheroids with HUVEC and MSC; for IC50: curve of first compound; for viability, T/C: stronger effect = lower value
Method: Multicellular complex tumor spheroid response to Polymerase (POL) inhibitors (novobiocin, ART-558, RP6685) in combination with a variety of drugs and investigational agents in selected tumor cell lines
The POL inhibitors (novobiocin, ART-558, and RP6685) were evaluated both individually and in combination with standard of care and investigational anticancer small molecules within a complex spheroid model of solid tumors. . Complex spheroids include a stromal component modeled by human endothelial cells (HUVEC) and fibroblasts modeled by human mesenchymal stem cells (MSCs). The concentration ranges selected for each drug and investigational agent were based upon clinically achievable concentrations if the clinical Cmax of the agent was known.
Compounds. The drugs and investigational agents: novobiocin (NSC847541), ART-558 (NSC835418), RP-6685 (NSC848927), peposertib (NSC802822), ceralasertib (NSC780249), elimusertib (NSC800525), camonsertib (NSC841442), AZD-1390 (NSC803789), olaparib (NSC753686), talazoparib (NSC767125), rucaparib (NSC756644), sotorasib (NSC818433), MRTX-1133 (NSC836407), SN-38 (NSC673596), topotecan (NSC609699), epotoside (NSC141540), doxorubicin (NSC123127), gemcitabine (NSC613327), 5-fluorouracil (NSC19893), paclitaxel (NSC125973), vemurafenib (NSC761431), MSA-2 (NSC828583), SN-011 (NSC837082), adavosertib (NSC754352), prexasertib (NSC758257), carboplatin (NSC241240) and oxaliplatin (NSC266046), were obtained from the National Cancer Institute (NCI) Developmental Therapeutics Program Chemical Repository (21). The FDA-approved anticancer drug set is available from the Developmental Therapeutics Program at https://dtp.cancer.gov/organization/dscb/obtaining/. […] The stock solutions were prepared in dimethyl sulfoxide (DMSO, Sigma-Aldrich, St. Louis, MO, cat. D2650), except for the platinum compounds which were prepared in saline (Quality Biological, Gaithersburg, MD, cat. 114-055-101), at 800-fold the tested concentration and stored at -70 degrees C prior to their use. All drugs and investigational agents were tested over a range starting from a high concentration at or near the clinical Cmax and decreasing in half-log increments. If the clinical Cmax for an agent had not been determined, the highest concentration tested was 10 microM, except for SN-38, which was tested at a high concentration of 1 microM.
Cell Culture. All cells were maintained in an incubator at 37 degrees C and 5% CO2 with 95% humidity. The PDC lines were cultured according to standard operating procedures established by the NCI PDMR (https://pdmr.cancer.gov). Table 3 of the manuscript, lists the cell lines along with the number of the three cell types plated to form the mct-spheroids and media for tumor cell growth. After thawing, all PDC lines, except 997537-175-T-J1-PDC and 415267-285-R-J2-PDC, were cultured in Matrigel-coated flasks prepared with a working solution of 1X Ham's F-12 nutrient mix, without supplementation (Thermo Fisher Scientific, cat. 11765054), 100 U/mL penicillin-streptomycin (Thermo Fisher Scientific, cat. 15140122), and 2.5% Matrigel (Corning Inc., Corning, NY, cat. 354248) for the first three passages. The two PDC lines 997537-175-T-J1-PDC and 415267-285-R-J2-PDC were cultured on uncoated flasks. The 857933-349-R-J2-PDC line was cultured in 6C/Colon 1B media containing advanced DMEM/F-12 (Thermo Fisher Scientific, cat. 12634028), 10 mM HEPES (Thermo Fisher Scientific, cat. 15630080), 1X GlutaMAX supplement (Thermo Fisher Scientific, cat. 35050061), 0.1 mg/mL primocin (InvivoGen, San Diego, CA, cat. ant-pm-2), 10% defined fetal bovine serum, heat inactivated (HyClone Laboratories Inc., Logan, UT, cat. SH30070.03HI), 50% L-WRN conditioned media (ATCC, cat. CRL-3276), 1.25 mM N-Acetyl-L-cysteine (Sigma-Aldrich, cat. A9165), 10 mM nicotinamide (Sigma-Aldrich, cat. N0636), 1X B-27 supplement (Thermo Fisher Scientific, cat. 17504044), 1X N-2 supplement (Thermo Fisher Scientific, cat. […]
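Note: spheroids exposed to drugs for seven days before readout.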
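Throughout, for viability, T/C: percent viability relative to DMSO vehicle control taken as 100%.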

SMILES: CCc1c2c(nc3ccc(O)cc13)-c1cc3c(c(=O)n1C2)COC(=O)[C@]3(O)CC + COC1C(OC(N)=O)C(O)C(Oc2ccc3c(O)c(NC(=O)c4ccc(O)c(CC=C(C)C)c4)c(=O)oc3c2C)OC1(C)C
- IC50 (second compound 0.0316 µM): < 3.16 nM
- IC50 (second compound 0.1 µM): < 3.16 nM
- IC50 (second compound 0.316 µM): < 3.16 nM
- IC50 (second compound 1 µM): < 3.16 nM
- IC50 (second compound 3.16 µM): < 3.16 nM
- IC50 (second compound 10 µM): < 3.16 nM
- viability, T/C (second compound 0.0316 µM, first compound 0.00316 µM): 42.4%
- viability, T/C (second compound 0.0316 µM, first compound 0.01 µM): 8.01%
- viability, T/C (second compound 0.0316 µM, first compound 0.0316 µM): 6.39%
- viability, T/C (second compound 0.0316 µM, first compound 0.1 µM): 2.16%
- viability, T/C (second compound 0.0316 µM, first compound 0.316 µM): 1.05%
- viability, T/C (second compound 0.0316 µM, first compound 1 µM): 0.62%
- viability, T/C (second compound 0.1 µM, first compound 0.00316 µM): 49.5%
- viability, T/C (second compound 0.1 µM, first compound 0.01 µM): 11.7%
- viability, T/C (second compound 0.1 µM, first compound 0.0316 µM): 5.4%
- viability, T/C (second compound 0.1 µM, first compound 0.1 µM): 1.94%
- viability, T/C (second compound 0.1 µM, first compound 0.316 µM): 0.57%
- viability, T/C (second compound 0.1 µM, first compound 1 µM): 1.04%
- viability, T/C (second compound 0.316 µM, first compound 0.00316 µM): 45.1%
- viability, T/C (second compound 0.316 µM, first compound 0.01 µM): 8.27%
- viability, T/C (second compound 0.316 µM, first compound 0.0316 µM): 5.04%
- viability, T/C (second compound 0.316 µM, first compound 0.1 µM): 2.09%
- viability, T/C (second compound 0.316 µM, first compound 0.316 µM): 2.43%
- viability, T/C (second compound 0.316 µM, first compound 1 µM): 0.41%
- viability, T/C (second compound 1 µM, first compound 0.00316 µM): 40%
- viability, T/C (second compound 1 µM, first compound 0.01 µM): 9.16%
- viability, T/C (second compound 1 µM, first compound 0.0316 µM): 5.09%
- viability, T/C (second compound 1 µM, first compound 0.1 µM): 1.92%
- viability, T/C (second compound 1 µM, first compound 0.316 µM): 0.94%
- viability, T/C (second compound 1 µM, first compound 1 µM): 0.31%
- viability, T/C (second compound 3.16 µM, first compound 0.00316 µM): 41.8%
- viability, T/C (second compound 3.16 µM, first compound 0.01 µM): 9.15%
- viability, T/C (second compound 3.16 µM, first compound 0.0316 µM): 5.39%
- viability, T/C (second compound 3.16 µM, first compound 0.1 µM): 2.03%
- viability, T/C (second compound 3.16 µM, first compound 0.316 µM): 0.93%
- viability, T/C (second compound 3.16 µM, first compound 1 µM): 0.3%
- viability, T/C (second compound 10 µM, first compound 0.00316 µM): 41.5%
- viability, T/C (second compound 10 µM, first compound 0.01 µM): 7.13%
- viability, T/C (second compound 10 µM, first compound 0.0316 µM): 6.51%
- viability, T/C (second compound 10 µM, first compound 0.1 µM): 1.69%
- viability, T/C (second compound 10 µM, first compound 0.316 µM): 1.78%
- viability, T/C (second compound 10 µM, first compound 1 µM): 0.49%
